Laboratory results published in ChEMBL document CHEMBL3879915, “Methods of inhibiting PRMT5” (2014).

Key:
PRMT5/MEP50 complex = PRMT5/MEP50 complex (Homo sapiens, UniProt O14744); assay: Inhibition of recombinant human fetal brain FLAG-tagged PRMT5/full length human testis 6His-tagged MEP50 expressed in baculovirus infected insect Sf9 cells using human histone H4 (1 to 15 residues) as substrate preincubated for 30 mins followed by [3H]-SAM addition
[1] = target: Protein arginine N-methyltransferase 5 (Homo sapiens, UniProt O14744); assay: Inhibition of PRMT5 in human Z138 cells assessed as decrease in di-methyl arginine levels after 96 hrs by Western blot method; type: cell-based
[2] = Antiproliferative activity against human Z138 cells assessed as inhibition of cell viability after 5 days by Cell-Titer Glo assay; type: functional, cell-based; settings: Z-138, 120 h

Sequence of Protein arginine N-methyltransferase 5 (O14744 whole entry): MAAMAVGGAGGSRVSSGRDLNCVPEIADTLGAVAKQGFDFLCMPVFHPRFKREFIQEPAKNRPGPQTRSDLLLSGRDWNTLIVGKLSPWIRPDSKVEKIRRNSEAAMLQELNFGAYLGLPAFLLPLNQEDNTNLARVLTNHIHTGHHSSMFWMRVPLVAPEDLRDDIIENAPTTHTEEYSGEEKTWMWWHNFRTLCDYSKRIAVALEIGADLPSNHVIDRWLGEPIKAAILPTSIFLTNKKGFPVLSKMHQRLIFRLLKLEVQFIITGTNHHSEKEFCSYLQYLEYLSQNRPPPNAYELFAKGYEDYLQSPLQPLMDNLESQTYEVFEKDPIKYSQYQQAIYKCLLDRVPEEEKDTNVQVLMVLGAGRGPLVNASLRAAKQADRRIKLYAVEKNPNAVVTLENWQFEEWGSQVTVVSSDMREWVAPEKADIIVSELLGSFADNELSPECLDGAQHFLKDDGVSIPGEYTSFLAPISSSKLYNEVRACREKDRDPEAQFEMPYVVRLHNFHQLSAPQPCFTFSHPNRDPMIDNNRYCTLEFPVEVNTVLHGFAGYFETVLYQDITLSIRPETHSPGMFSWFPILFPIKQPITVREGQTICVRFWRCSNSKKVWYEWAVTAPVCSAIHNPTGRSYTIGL
Sequence of PRMT5/MEP50 complex (O14744 whole entry, the tested form may be a part): as the sequence (O14744 whole entry) above
Sequence of PRMT5/MEP50 complex (Q9BQA1 whole entry, further chain, the tested form may be a part): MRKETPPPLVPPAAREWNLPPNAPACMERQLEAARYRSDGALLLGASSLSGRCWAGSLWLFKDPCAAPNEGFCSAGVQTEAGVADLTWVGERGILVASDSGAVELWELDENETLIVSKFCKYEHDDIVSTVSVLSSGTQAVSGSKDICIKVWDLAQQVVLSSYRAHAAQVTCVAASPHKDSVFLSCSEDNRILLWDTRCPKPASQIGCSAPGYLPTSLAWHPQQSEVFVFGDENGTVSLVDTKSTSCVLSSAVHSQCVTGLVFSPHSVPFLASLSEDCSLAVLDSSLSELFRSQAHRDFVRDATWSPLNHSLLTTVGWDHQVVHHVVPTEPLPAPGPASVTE

| Compound | IC50 (PRMT5/MEP50 complex) [nM] | EC50 [1] [nM] | EC50 [2] [nM] |
| --- | --- | --- | --- |
| CN1CCOc2cccc(OCC(=O)NCC(O)CN3CCc4ccccc4C3)c21 (stereo not given) | < 100 | < 100 | 101 to 1000 |
| CS(=O)(=O)c1cccc(OCC(=O)NCC(O)CN2CCc3ccccc3C2)c1 (stereo not given) | < 100 | 101 to 1000 | 1000 to 10000 |
| O=C(COc1ccccc1C1CCNCC1)NCC(O)CN1CCc2ccccc2C1 (stereo not given) | < 100 | 101 to 1000 | > 20000 |
| CC(=O)c1cccc(-c2cccc(OCC(O)CN3CCc4ccccc4C3)c2)c1 (stereo not given) | 101 to 1000 | 1000 to 10000 | 10000 to 40000 |
| CN(C)c1ccc2cccc(OCC(=O)NC[C@@H](O)CN3CCc4ccccc4C3)c2n1 | < 100 | 101 to 1000 | 1000 to 10000 |
| O[C@@H](COc1cccc(-c2cccc3cccnc23)c1)CN1CCc2ccccc2C1 | < 100 | 101 to 1000 | 1000 to 10000 |
| O=C(COc1ccccc1N1CCOCC1)NCC(O)CN1CCc2ccccc2C1 (stereo not given) | < 100 | 101 to 1000 | 1000 to 10000 |
| O=C1NCc2ccc(-c3cccc(OCC(O)CN4CCc5ccccc5C4)c3)cc21 (stereo not given) | 101 to 1000 | 1000 to 10000 | 10000 to 40000 |
| Cn1ccc2ccc(-c3cccc(OCC(O)CN4CCc5ccccc5C4)c3)nc21 (stereo not given) | < 100 | 101 to 1000 | > 20000 |
| CS(=O)(=O)Nc1cccc(C(=O)NCC(O)CN2CCc3ccccc3C2)c1 (stereo not given) | < 100 | 101 to 1000 | 1000 to 10000 |
| O=C(NCC(O)CN1CCc2ccccc2C1)c1cccc(N2CCOCC2)c1 (stereo not given) | < 100 | 101 to 1000 | 1000 to 10000 |
| O=C(NCC(O)CN1Cc2ccccc2C1)c1cccc(-c2ccccn2)c1 (stereo not given) | 101 to 1000 | 1000 to 10000 | > 20000 |
| Cn1cnc2ccc(-c3cccc(OC[C@@H](O)CN4CCc5ccccc5C4)c3)cc21 | 101 to 1000 | 1000 to 10000 | 1000 to 10000 |
| O=C(COc1cccc2cccnc12)NC[C@H](O)CN1CCc2ccccc2C1 | 101 to 1000 | 101 to 1000 | 10000 to 50000 |
| O=C(COc1cccc2c1CCNC2)NCC(O)CN1CCc2ccccc2C1 (stereo not given) | < 100 | 101 to 1000 | 1000 to 10000 |
| O=C(NCC(O)CN1CCc2ccccc2C1)c1cccc(C2CCNC2)c1 (stereo not given) | < 100 | 101 to 1000 | > 20000 |
| CNC(=O)Cn1ccc2cnc(-c3ccnc(NCC(O)CN4CCc5ccccc5C4)c3)nc21 (stereo not given) | < 100 | 101 to 1000 | 1000 to 10000 |
| CNC(=O)c1cncc(-c2cccc(OCC(O)CN3CCc4ccccc4C3)c2)c1 (stereo not given) | 1000 to 10000 | 1000 to 10000 | > 20000 |

| Compound | IC50 (PRMT5/MEP50 complex) [nM] | EC50 [1] [nM] | EC50 [2] [nM] |
| --- | --- | --- | --- |
| O=C(NCC(O)CN1CCc2ccccc2C1)c1cccc(CN2CCNCC2)c1 (stereo not given) | < 100 | 101 to 1000 | 1000 to 10000 |
| O=c1cc(Nc2ccccc2)ccn1C[C@@H](O)CN1CCc2ccccc2C1 | 101 to 1000 | 101 to 1000 | > 20000 |
| CN(C)c1cccc(OCC(=O)NCC(O)CN2CCc3ccccc3C2)c1 (stereo not given) | < 100 | 101 to 1000 | 1000 to 10000 |
| CS(=O)(=O)c1ccc(-c2cccc(OCC(O)CN3CCc4ccccc4C3)c2)cc1 (stereo not given) | 101 to 1000 | 1000 to 10000 | 10000 to 40000 |
| COc1ccc(Cl)cc1-c1cccc(OCC(O)CN2CCc3ccccc3C2)c1 (stereo not given) | 101 to 1000 | 1000 to 10000 | > 20000 |
| O=C(COc1ccccc1N1CCNCC1)NCC(O)CN1CCc2ccccc2C1 (stereo not given) | < 100 | 101 to 1000 | 1000 to 10000 |
| CS(=O)(=O)N1CCc2c(cccc2OCC(=O)NCC(O)CN2CCc3ccccc3C2)C1 (stereo not given) | < 100 | < 100 | 1000 to 10000 |
| OC(CNc1cc(-c2ccc3ncn(C4CCNC4)c3c2)ccn1)CN1CCc2ccccc2C1 (stereo not given) | < 100 | 101 to 1000 | 1000 to 10000 |
| Cn1cnc2ccc(-c3ccnc(NC[C@@H](O)CN4CCc5ccccc5C4)c3)cc21 | 101 to 1000 | 1000 to 10000 | 1000 to 10000 |
| COc1ccc(-c2cccc(OCC(O)CN3CCc4ccccc4C3)c2)c(Cl)c1 (stereo not given) | 101 to 1000 | 1000 to 10000 | 10000 to 40000 |
| OC(CNc1cc(-c2ccc3ncn(C4CCOCC4)c3c2)ccn1)CN1CCc2ccccc2C1 (stereo not given) | < 100 | 101 to 1000 | 1000 to 10000 |
| O=C(c1ccc(Cn2nccc2-c2ccc(OCC(O)CN3CCc4ccccc4C3)cc2)cc1)N1CCCC1 (stereo not given) | 101 to 1000 | 1000 to 10000 | 10000 to 40000 |
| CC(Oc1cccc2cccnc12)C(=O)NCC(O)CN1CCc2ccccc2C1 (stereo not given) | < 100 | < 100 | 101 to 1000 |
| CN1CCC(n2cnc3ccc(-c4ccnc(NCC(O)CN5CCc6ccccc6C5)c4)cc32)CC1 (stereo not given) | < 100 | 101 to 1000 | 1000 to 10000 |
| CC(=O)N(CC(O)CN1CCc2ccccc2C1)c1cccc(-c2ccc3ncn(C)c3c2)c1 (stereo not given) | < 100 | 101 to 1000 | 10000 to 40000 |
| Cn1cnc2cc(OCC(=O)NCC(O)CN3CCc4ccccc4C3)ccc21 (stereo not given) | 101 to 1000 | 101 to 1000 | 10000 to 50000 |
| COC(COc1cccc(CNC2CCCC2)c1)CN1CCc2ccccc2C1 (stereo not given) | 1000 to 10000 | > 20000 | > 40000 |

Continued, in another order:

| IC50 (PRMT5/MEP50 complex) [nM] | EC50 [1] [nM] | Compound | EC50 [2] [nM] |
| --- | --- | --- | --- |
| < 100 | 101 to 1000 | CN(C)CCOc1ccccc1OCC(=O)NC[C@H](O)CN1CCc2ccccc2C1 | 10000 to 50000 |
| 101 to 1000 | 101 to 1000 | Cn1ncc2ccc(-c3cc(NCC(O)CN4CCc5ccccc5C4)ncn3)cc21 (stereo not given) | > 20000 |
| 101 to 1000 | 1000 to 10000 | COc1cccc(-c2cccc(OCC(O)CN3CCc4ccccc4C3)c2)c1 (stereo not given) | 10000 to 40000 |
| 101 to 1000 | > 20000 | CC1c2ccccc2CCN1CC(O)COc1cccc(-c2ccc3ncn(C)c3c2)c1 (stereo not given) | 1000 to 10000 |
| < 100 | 101 to 1000 | COc1cccc(OCC(=O)NCC(O)CN2CCc3ccccc3C2)c1 (stereo not given) | 1000 to 10000 |
| 101 to 1000 | 101 to 1000 | CC(=O)Nc1cccc(-c2cccc(OCC(O)CN3CCc4ccccc4C3)c2)c1 (stereo not given) | > 20000 |
| 101 to 1000 | 1000 to 10000 | O=C(COc1ccccc1-c1ncc[nH]1)NCC(O)CN1CCc2ccccc2C1 (stereo not given) | > 20000 |
| < 100 | 101 to 1000 | O=C(COc1cccc2ccc(N3CCOCC3)nc12)NCC(O)CN1CCc2ccccc2C1 (stereo not given) | 10000 to 50000 |
| < 100 | 101 to 1000 | CS(=O)(=O)Nc1cccc(OCC(=O)NCC(O)CN2CCc3ccccc3C2)c1 (stereo not given) | 1000 to 10000 |
| < 100 | < 100 | O=C(COc1cccc2c1OCCO2)NCC(O)CN1CCc2ccccc2C1 (stereo not given) | 1000 to 10000 |
| 101 to 1000 | 1000 to 10000 | CC(=O)N1CCN(S(=O)(=O)c2ccccc2OCC(=O)NCC(O)CN2CCc3ccccc3C2)CC1 (stereo not given) | > 20000 |
| 101 to 1000 | 101 to 1000 | CS(=O)(=O)Nc1ccc(C(=O)NCC(O)CN2CCc3ccccc3C2)cc1 (stereo not given) | 10000 to 50000 |
| < 100 | 101 to 1000 | O=C(NC[C@@H](O)CN1CCc2ccccc2C1)c1cccc(-c2ccccn2)c1 | 10000 to 50000 |
| < 100 | < 100 | COc1ccc2cccc(OCC(=O)NC[C@@H](O)CN3CCc4ccccc4C3)c2n1 | 1000 to 10000 |
| 101 to 1000 | 10000 to 40000 | OC(COc1cccc(-c2cc(OC(F)(F)F)ccc2Cl)c1)CN1CCc2ccccc2C1 (stereo not given) | > 20000 |
